Test results reported in patent publication US7858635B2 (priority 2005, dated 2010).
Where two headings read alike, the source gives them in different places.

Experiments:
M4 muscarinic receptor = molecular target: T1, M4 muscarinic receptor (Homo sapiens, UniProt P08173); experiment: Functional mobilization of intracellular calcium (FLIPR, Fluo-3), M4-CHO cells; type: cell-based; conditions: for Emax: 100% efficacy is the maximum response obtained with the Carbachol control, read-out: M4 Efficacy
T1 construct: expressed in transfected cells; host or cells: CHO cells (M4-CHO, under puromycin, zeocin and blasticidin selection)
T1 sequence (P08173 1-479): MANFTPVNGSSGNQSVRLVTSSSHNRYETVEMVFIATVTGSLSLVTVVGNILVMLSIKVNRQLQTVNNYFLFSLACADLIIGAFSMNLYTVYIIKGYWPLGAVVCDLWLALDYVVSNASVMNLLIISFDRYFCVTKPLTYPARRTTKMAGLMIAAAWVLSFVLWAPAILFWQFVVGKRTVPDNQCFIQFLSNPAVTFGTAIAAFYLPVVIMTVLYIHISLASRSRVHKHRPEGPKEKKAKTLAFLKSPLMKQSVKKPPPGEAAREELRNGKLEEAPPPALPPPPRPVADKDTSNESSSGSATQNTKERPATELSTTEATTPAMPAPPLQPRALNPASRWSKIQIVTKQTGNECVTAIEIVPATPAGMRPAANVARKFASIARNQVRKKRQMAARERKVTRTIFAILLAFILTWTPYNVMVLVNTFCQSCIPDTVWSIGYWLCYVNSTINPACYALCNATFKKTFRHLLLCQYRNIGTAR
Description: (§1) CHO cells expressing muscarinic receptors (M1 to M5) are grown as monolayers in tissue culture flasks at 37° C. in a humidified atmosphere containing 5% CO2 and passaged every 3-5 days. The growth media is Dulbecco's modified eagles medium (DMEM, Gibco Cat#12430-054), containing 25 mM Hepes and supplemented with Fetal Bovine Serum (Hyclone, cat# SH30071.03), 0.1 mM of MEM non-essential amino acids (GIBCO, Cat# 11140-050), 1 mM MEM Sodium Pyruvate (GIBCO Cat# 11360-070) and 100 units/ml of Penicillin G and 100 μg/ml of Streptomycin (GIBCO Cat# 15140-122). The recombinant muscarinic receptor cell lines are grown under antibiotic pressure with media containing 25 μm/ml zeocin and 500 μg/ml G418 (M1-CHO), 4 μg/ml puromycin, 50 μg/ml zeocin and 2.5 μm/ml blasticidin (M2 and M4-CHO) or 50 μg/ml zeocin and 4 μg/ml puromycin (M3 and M5-CHO).
(§2) Cells are harvested at 80-90% confluence using Versene (GIBCO Cat# 15040-066), collected by centrifugation and seeded 18-24 hrs prior to running the calcium assay at a density of 5,000-10,000 cells/well in […], clear-bottomed 384-well plates (BD Biocoat, poly-D-lysine, Cat#356663). The day of the experiment, the cells are washed with a plate washer (Bioteck Instruments, ELX 405) using bath1 buffer (140-mM NaCl, 4.5-mM KCL, 2-mM CaCl2, 1-mM MgCl2, 10-mM Hepes-Na, 10-mM Glucose, pH 7.4, with NaOH) containing 1 mM Probenecid. Next, the calcium dye Fluo-3 (25 μl/well of Fluo-3 μM at 4 μM, Molecular Probes F-1241, in Bath 1 buffer containing 1 mM Probenecid) is added to the 25 μl of Bath 1 remaining in each well after the plate wash and the dye is loaded at 37° C. in the tissue culture incubator for 60-90 min. The fluorescent dye is removed using the plate washer with Bath 1 containing 1 mM Probenecid, leaving 25 μl/well of this solution after the wash. Alternatively, cells can be loaded with the calcium indicator from Molecular Devices (Calcium 3 Assay Reagents, Cat # R7181) adding 5 μl of a 5× solution dye in Bath 1 containing 1 mM Probenecid (10 ml per dye flask cat# R7182 to generate a solution 20×) to 20 μl of the same buffer. After loading for 60 min, the experiment can be run without having to remove the dye.
(§3) Compounds are prepared at a 2× fold concentration in a 96-well plate (round bottom, Costar Corning cat# 3656), by reconstituting the pre-spotted compounds in bath 1 containing 1 mM probenecid. The final concentration DMSO is 0.5%, and the amount of DMSO is normalized across the assay plate. To determine an agonist action of the compounds on muscarinic receptors, the reconstituted compounds are added (25 μl compound/well) to the cell assay plate (containing 25 μl/well) using the multi-channel robotic system of the FLIPR 3 Instrument (Molecular Devices, Sunnyvale, Calif.). To determine a functional inhibitory action of the compounds on muscarinic receptors, the reconstituted compounds are added (25 μl compound/well) to the assay plate and pre-incubated for 15 min prior to adding 25 μl of Carbachol at 3× the EC80 for each muscarinic subtype. Alternatively, the compounds can be co-applied simultaneously with the agonist. In both assay modes, the fluorescence is recorded for 60 sec (excitation wavelength is […] and emission wavelength 540 nm) using the FLIPR 3 instrument.
(§4) The potency, efficacy and selectivity of the muscarinic compounds were evaluated by screening the compound activity across the whole family (M1 to M5 cells). Compounds were also screened for activity on other proteins such as other GPCRs and ion channels to determine selectivity on M4 receptors.

M1 muscarinic receptor = molecular target: T2, M1 muscarinic receptor (Homo sapiens, UniProt P11229); experiment: Functional mobilization of intracellular calcium (FLIPR, Fluo-3), M1-CHO cells; type: cell-based; conditions: for Emax: 100% efficacy is the maximum response obtained with the Carbachol control, read-out: M1 Efficacy
T2 construct: expressed in transfected cells; host or cells: CHO cells (M1-CHO, under zeocin and G418 selection)
T2 sequence (P11229 1-460): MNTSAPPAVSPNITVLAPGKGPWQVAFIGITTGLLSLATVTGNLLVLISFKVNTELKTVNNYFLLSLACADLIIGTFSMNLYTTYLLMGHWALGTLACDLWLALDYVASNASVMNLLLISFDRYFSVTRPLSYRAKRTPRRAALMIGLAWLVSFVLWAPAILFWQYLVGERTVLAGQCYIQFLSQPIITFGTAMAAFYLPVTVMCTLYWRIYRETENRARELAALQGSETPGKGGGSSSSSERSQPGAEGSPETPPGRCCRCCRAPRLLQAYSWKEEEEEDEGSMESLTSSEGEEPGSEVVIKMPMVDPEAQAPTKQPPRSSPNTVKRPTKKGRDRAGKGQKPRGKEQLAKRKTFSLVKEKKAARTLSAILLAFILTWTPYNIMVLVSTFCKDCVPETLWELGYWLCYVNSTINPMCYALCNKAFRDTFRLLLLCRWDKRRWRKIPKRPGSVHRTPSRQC
Description: as §1, §2, §3, §4

[1] = compound nos. 1-454, M4-CHO cells, calcium mobilization
[2] = compound nos. 1-454, M1-CHO cells, calcium mobilization

Row | Structure (SMILES) | Emax (M4 muscarinic receptor; compound nos. 1-454) | M4 Activity (M4 muscarinic receptor; [1]) | Emax (M1 muscarinic receptor; compound nos. 1-454) | M1 Activity (M1 muscarinic receptor; [2]) | Emax (M4 muscarinic receptor; compound nos. 455-509) | M4 Activity (M4 muscarinic receptor; compounds 455-509) | Emax (M1 muscarinic receptor; compound nos. 455-509) | M1 Activity (M1 muscarinic receptor; compounds 455-509) | M4 Activity (M4 muscarinic receptor; compound nos. 1-454) | M1 Activity (M1 muscarinic receptor; compound nos. 1-454)
1 | CCOC(=O)N1CCC(N2CCC3(CC2)CN(CC(=O)CC)c2ccc(F)cc23)CC1 [compound 303] | < 55% | + (activity was measured to be greater than or equal to 4.0 μM) | > 85% | ++ (activity was measured to be between 0.7 μM and 3.0 μM) |  |  |  |  |  | 
2 | CC(C)(C)COC(=O)N1C2CCC1CC(N1CCC3(CC1)COc1ccc(F)cc13)C2 (stereo not drawn) [compound 247] | > 70% | + (activity was measured to be greater than or equal to 4.0 μM) | 65 to 85% | ++ (activity was measured to be between 0.7 μM and 3.0 μM) |  |  |  |  |  | 
3 | CN(C)C(=O)N1CC2(CCN(C3CCN(c4ncnc5ccsc45)CC3)CC2)c2cc(F)ccc21 [compound 496] |  |  |  |  | 25 to 100% | ++ (activity was measured to be between 2.0 μM and 5.0 μM) | > 100% | + (activity was measured to be greater than or equal to 5.0 μM) |  | 
4 | O=C(O[C@@H]1CCOC1)N1CC2(CCN(C3CC4CCC(C3)N4C(=O)O[C@H]3CCOC3)CC2)c2cc(F)ccc21 (stereo partly drawn) [compound 93] | < 55% | ++ (activity was measured to be between 0.1 μM and 4.0 μM) | < 65% | ++ (activity was measured to be between 0.7 μM and 3.0 μM) |  |  |  |  |  | 
5 | CCCC1CCC(N2CCC3(CC2)CN(C(C)=O)c2ccc(F)cc23)CC1 (stereo not drawn) [compound 131] | > 70% | ++ (activity was measured to be between 0.1 μM and 4.0 μM) | 65 to 85% | +++ (activity was measured to be less than or equal to 0.7 μM) |  |  |  |  |  | 
6 | COCCOC(=O)N1CCC(CN2CCC3(CC2)C[C@H](NC(C)=O)c2ccccc23)CC1 [compound 412] | < 55% |  | < 65% |  |  |  |  |  | + (activity was measured to be greater than or equal to 4.0 μM) | ++ (activity was measured to be between 0.7 μM and 3.0 μM)
7 | CCOC(=O)N1CCC(CN2CCC3(CC2)CN(C(C)=O)c2ccc(OC(F)(F)F)cc23)CC1 [compound 21] | < 55% | + (activity was measured to be greater than or equal to 4.0 μM) | < 65% | ++ (activity was measured to be between 0.7 μM and 3.0 μM) |  |  |  |  |  | 
8 | Cc1ccc2c(c1)C1(CCN(C3CC4CCC3C4)CC1)CN2S(C)(=O)=O (stereo not drawn) [compound 232] | > 70% | +++ (activity was measured to be less than or equal to 0.1 μM) | < 65% | ++ (activity was measured to be between 0.7 μM and 3.0 μM) |  |  |  |  |  | 
9 | CC(=O)N1CC2(CCN(C3CC4CCC(C3)N4C(=O)OC(C)C)CC2)c2cc(F)ccc21 (stereo not drawn) [compound 94] | < 55% | ++ (activity was measured to be between 0.1 μM and 4.0 μM) | < 65% | +++ (activity was measured to be less than or equal to 0.7 μM) |  |  |  |  |  | 
10 | CCc1nsc(N2C3CCC2CC(N2CCC4(CCN(C(=O)N(C)C)c5ccccc54)CC2)C3)n1 (stereo not drawn) [compound 473] |  |  |  |  | 25 to 100% | ++ (activity was measured to be between 2.0 μM and 5.0 μM) | > 100% | +++ (activity was measured to be less than or equal to 2.0 μM) |  | 
11 | CC(=O)N(C)[C@H]1CC2(CCN(C[C@H]3C[C@H]4CC[C@H]3C4)CC2)c2ccccc21 [compound 339] | < 55% | + (activity was measured to be greater than or equal to 4.0 μM) | < 65% | + (activity was measured to be greater than or equal to 3.0 μM) |  |  |  |  |  | 
12 | COCCOC(=O)N1CC2(CCN(C3CC4CCC(C3)N4C(=O)O[C@H]3CCOC3)CC2)c2cc(F)ccc21 (stereo partly drawn) [compound 80] | < 55% | ++ (activity was measured to be between 0.1 μM and 4.0 μM) | < 65% | ++ (activity was measured to be between 0.7 μM and 3.0 μM) |  |  |  |  |  | 
13 | COc1ccc(N2CCC(N3CCC4(CC3)CN(C(=O)N(C)C)c3ccc(F)cc34)CC2)nn1 [compound 488] |  |  |  |  | 25 to 100% | ++ (activity was measured to be between 2.0 μM and 5.0 μM) | > 100% | + (activity was measured to be greater than or equal to 5.0 μM) |  | 
14 | C1=C[C@H]2C[C@H]1C[C@@H]2CN1CCC2(CCc3ccccc32)CC1 [compound 263] | < 55% | +++ (activity was measured to be less than or equal to 0.1 μM) | < 65% | +++ (activity was measured to be less than or equal to 0.7 μM) |  |  |  |  |  | 
15 | COCCOC(=O)N1CCCC(N2CCC3(CC2)CN(C(C)=O)c2ccc(F)cc23)CC1 (stereo not drawn) [compound 65] | < 55% | + (activity was measured to be greater than or equal to 4.0 μM) | 65 to 85% | ++ (activity was measured to be between 0.7 μM and 3.0 μM) |  |  |  |  |  | 
